Experimental findings from ChEMBL document CHEMBL1146649, “New highly active taxoids from 9 beta-dihydrobaccatin-9,10-acetals. Part 5” (2004) are described below.

≈ marks a conversion by molar mass, not a printed value.

As usually defined, the ED50 is the midpoint of the dose-response relation. Low values mean an effect at a small dose, high ones a need for a large dose. In general, GI50 refers to the concentration giving 50% growth inhibition. Higher therefore signals lower sensitivity of the cells.

Test [1] relates to Mus musculus. Description: Effective dose of intravenously administered compound against B16 melanoma BL6 cells implanted into mice; range is 3.5-5.3. Type of test: functional. The note with it: B16, iv.
The test system of test [2] is B16. Description: Effective dose of perorally administered compound against B16 melanoma BL6 cells implanted into mice. Format: functional. As to conditions: Mus musculus, B16, po.
The test system of test [3] is P388. Description: Concentration required to inhibit mouse P388 cell line growth by 50% at 72 hr continuous exposure. The note with it: P388, 72 h. Format: functional.
For test [4], the system named is PC-6. The experiment in a line: Concentration required to inhibit human PC-6 cell line growth by 50% at 72 hr continuous exposure. Type of test: functional. The note with it: PC-6, 72 h.
The subject of test [5] is PC-6. The experiment in a line: Concentration that inhibited the growth of PC-6/VCR29-9 cells by 50% at 72 hr continuous exposure. Format: functional. As to conditions: Homo sapiens, PC-6, 72 h.
Test [6] deals with PC-6. The experiment in a line: Concentration required to inhibit human PC-6/VP1-1 cell line growth by 50% at 72 hr exposure. Format: functional. As to conditions: PC-6, 72 h.
The test system of test [7] is PC-12. Description: Concentration required to inhibit human PC-12 cell line growth by 50% at 72 hr continuous exposure. Type of test: functional. The note with it: PC-12, 72 h.
Test [8] relates to Mus musculus. The experiment in a line: Maximum rate of body weight loss after intravenous administration of 11.9 mg/kg of compound in mice; <0 indicates no weight loss. Format: functional.
Test [9] deals with Mus musculus. Description: Maximum rate of body weight loss after intravenous administration of 17.8 mg/kg of compound in mice. Format: functional.
Test [10] concerns Mus musculus. The experiment in a line: Maximum rate of body weight loss after peroral administration of 17.8 mg/kg of compound in mice. Type of test: functional. As to conditions: route oral.
Test [11] deals with Mus musculus. Description: Maximum rate of body weight loss after peroral administration of 26.7 mg/kg of compound in mice. Format: functional. The note with it: route oral.
Test [12] concerns Mus musculus. The experiment in a line: Effective dose of intravenously administered compound against B16 melanoma BL6 cells implanted into mice; range is 11.9-17.8. Type of test: functional. As to conditions: B16, iv.
In test [13] the test system is Mus musculus. Description: Maximum rate of body weight loss after peroral administration of 7.9 mg/kg of compound in mice. Type of test: functional. As to conditions: route oral.
In test [14] the test system is B16. Description: Antitumor activity of 11.9 mg/kg of intravenously administered compound against B16 melanoma BL6 cells implanted into mice, value reported is percent compared to control. As to conditions: route intravenous. Type of test: functional, Mus musculus.
In test [15] the test system is B16. Description: Antitumor activity of 11.9 mg/kg of perorally administered compound against B16 melanoma BL6 cells implanted into mice, value reported is percent compared to control. The note with it: route oral. Type of test: functional, Mus musculus.
Test [16] concerns Mus musculus. The experiment in a line: Antitumor activity of 17.8 mg/kg of intravenously administered compound against B16 melanoma BL6 cells implanted into mice, value reported is percent compared to control. Type of test: functional. The note with it: route intravenous.
For test [17], the system named is B16. The experiment in a line: Antitumor activity of 17.8 mg/kg of perorally administered compound against B16 melanoma BL6 cells implanted into mice, value reported is percent compared to control. Format: functional, Mus musculus. The note with it: route oral.
Test [18] concerns Mus musculus. The experiment in a line: Antitumor activity of 26.7 mg/kg of perorally administered compound against B16 melanoma BL6 cells implanted into mice, value reported is percent compared to control. Format: functional. As to conditions: route oral.
Test [19] relates to Mus musculus. Description: Antitumor activity of 7.9 mg/kg of intravenously administered compound against B16 melanoma BL6 cells implanted into mice, value reported is percent compared to control. Type of test: functional. As to conditions: route intravenous.
The subject of test [20] is Mus musculus. Description: Antitumor activity of 7.9 mg/kg of perorally administered compound against B16 melanoma BL6 cells implanted into mice, value reported is percent compared to control. Format: functional. As to conditions: route oral.
Test [21] deals with Mus musculus. Description: Maximum rate of body weight loss after intravenous administration of 7.9 mg/kg of compound in mice. Format: functional.
For test [22], the system named is Mus musculus. The experiment in a line: Maximum rate of body weight loss after peroral administration of 11.9 mg/kg of compound in mice; <0 indicates no weight loss. The note with it: route oral. Format: functional.
The test system of test [23] is Mus musculus. Description: Effective dose of perorally administered compound against B16 melanoma BL6 cells implanted into mice; range is 11.9-17.8. Type of test: functional. The note with it: B16, po.
For test [24], the system named is Mus musculus. Description: Number of mice died at 11.9 mg/kg of intravenous dose, among the total 6 mice tested. Format: functional.
For test [25], the system named is Mus musculus. Description: Number of mice died at 11.9 mg/kg of peroral dose, among the total 6 mice tested. The note with it: route oral. Type of test: functional.
The subject of test [26] is Mus musculus. The experiment in a line: Number of mice died at 17.8 mg/kg of intravenous dose among the total 6 mice tested. Type of test: functional.
Test [27] deals with Mus musculus. The experiment in a line: Number of mice died at 17.8 mg/kg of peroral dose among the total 6 mice tested. The note with it: route oral. Type of test: functional.
Test [28] has as its system Mus musculus. The experiment in a line: Number of mice died at 26.7 mg/kg of intravenous dose of compound among the total 6 mice tested. Format: functional.
The subject of test [29] is Mus musculus. Description: Number of mice died at 26.7 mg/kg of peroral dose of compound among the total 6 mice tested. Format: functional. As to conditions: route oral.
Test [30] relates to Mus musculus. The experiment in a line: Number of mice died at 7.9 mg/kg of intravenous dose of compound among the total 6 mice tested. Format: functional.
Test [31] has as its system Mus musculus. Description: Number of mice died at 7.9 mg/kg of peroral dose of compound among the total 6 mice tested. The note with it: route oral. Type of test: functional.
Test [32] has as its system PC-6. The experiment in a line: Concentration required to inhibit human PC-6/VCR29-9 cell line growth by 50% at 72 hr exposure. Type of test: functional. As to conditions: PC-6, 72 h.

Turning to `CC(=O)O[C@@]12CO[C@@H]1CC[C@@]1(C)[C@@H]3O[C@H](CN4CCOCC4)O[C@@H]3C3=C(C)[C@@H](OC(=O)[C@H](O)[C@@H](NC(=O)OC(C)(C)C)c4cscn4)C[C@@](O)([C@@H](OCc4ccccc4)[C@@H]12)C3(C)C`, the ED50 was 5.3 mg/kg in test [1] and 7.9 mg/kg in [2]. Besides, the GI50 amounted to 0.03 ng/mL (≈ 0.0334 nM) in test [3]; 0.65 ng/mL (≈ 0.724 nM) in test [4]; 1.02 ng/mL (≈ 1.14 nM) in test [5]; 9.13 ng/mL (≈ 10.2 nM) in [6]; 0.08 ng/mL (≈ 0.0891 nM) in [7].

Regarding `CC(=O)O[C@@]12CO[C@@H]1CC[C@@]1(C)[C@@H]3O[C@H](CN4CCOCC4)O[C@@H]3C3=C(C)[C@@H](OC(=O)[C@H](O)[C@@H](NC(=O)OC(C)(C)C)c4cccc(F)n4)C[C@@](O)([C@@H](OCc4ccccc4)[C@@H]12)C3(C)C`, the BWLmax in test [8] is on record as less than 0%; in [9], 11.9%; in [10], 2.2%; in test [11], 16.6%; in [13], 0.8%; in [21] it was 0.3%. In test [22], this compound registered a BWLmax of less than 0%. Also, the median effective dose (ED50) in test [12] and in test [23] was 17.8 mg/kg throughout. The IR is listed as 85.7% in [14]; 65.9% in [15]; 94.7% in [16]; 88.5% in test [17]; 97.4% in [18]; 28.6% in test [19]. The IR in test [20] was -16.3%. Further, the Mortality was determined as 0 in test [24]; 0 in test [25]; 0 in test [26]; 0 in test [27]; 6 in [28]; 1 in test [29]. For the same compound, the Mortality in [30] and in test [31] was 0 in each case. For the same compound, the GI50 in test [3] is 0.2 ng/mL (≈ 0.22 nM); in [4] it was 0.29 ng/mL (≈ 0.319 nM); in test [6] it was 13.7 ng/mL (≈ 15.1 nM); in test [7], 0.14 ng/mL (≈ 0.154 nM); in [32] it was 0.96 ng/mL (≈ 1.05 nM).
